Test results reported in ChEMBL document CHEMBL4804282, “Quinoline-based compounds and methods of inhibiting cdk8/19” (2020).
Values belong to the compound of their own block, whether it stands above or below them. Active and inactive are the calls of the source. No cut-off for these calls is given here.

Experiments:
[1] = molecular target: T1, Serine/threonine-protein kinase haspin (Homo sapiens) (UniProt Q8TF76); test: Inhibition of human HASPIN at 2000 nM by KINOMEscan assay
T1 sequence (whole entry): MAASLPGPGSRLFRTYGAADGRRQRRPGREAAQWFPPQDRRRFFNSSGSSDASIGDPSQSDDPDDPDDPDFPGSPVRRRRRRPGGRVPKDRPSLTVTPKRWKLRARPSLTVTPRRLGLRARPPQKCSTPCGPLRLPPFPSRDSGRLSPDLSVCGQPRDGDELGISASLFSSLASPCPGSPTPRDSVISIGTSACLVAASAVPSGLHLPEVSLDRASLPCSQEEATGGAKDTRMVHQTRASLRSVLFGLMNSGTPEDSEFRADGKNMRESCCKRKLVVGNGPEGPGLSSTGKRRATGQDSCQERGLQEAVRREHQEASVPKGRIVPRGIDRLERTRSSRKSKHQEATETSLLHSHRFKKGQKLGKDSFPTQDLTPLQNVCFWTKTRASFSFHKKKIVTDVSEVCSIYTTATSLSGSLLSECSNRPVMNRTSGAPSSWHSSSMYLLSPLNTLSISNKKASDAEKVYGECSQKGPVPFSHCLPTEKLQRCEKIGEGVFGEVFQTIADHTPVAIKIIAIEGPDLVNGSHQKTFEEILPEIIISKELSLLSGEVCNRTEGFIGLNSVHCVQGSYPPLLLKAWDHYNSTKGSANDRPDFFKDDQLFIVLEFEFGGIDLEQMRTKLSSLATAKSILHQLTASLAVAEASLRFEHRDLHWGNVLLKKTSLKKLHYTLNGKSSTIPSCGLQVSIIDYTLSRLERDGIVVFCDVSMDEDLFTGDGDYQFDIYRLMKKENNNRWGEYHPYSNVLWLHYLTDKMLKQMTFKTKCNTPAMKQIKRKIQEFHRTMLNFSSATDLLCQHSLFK

[2] = AUC (0-8 h) in female FVB mouse at 30 mg/kg, po; type: ADME, organism-based; parameters: time < 8 hr, route oral, dose 30 mg/kg; conditions: in vivo
[3] = Metabolic stability of compound in human hepatocytes assessed as metabolic conversion rate by LC/MS/MS analysis; type: ADME, cell-based, Hepatocyte
[4] = Inhibition of prostate specific antigen (PSA) production in human LNCaP C4-2 cells measured after 4 days by ELISA assay; type: functional, cell-based; conditions: LNCaP C4-2, 96 h
[5] = molecular target: Cyclin-dependent kinase 8 (Homo sapiens) (UniProt P49336); test: Inhibition of human CDK8 at 2000 nM by KINOMEscan assay
[6] = Half-life in female FVB mice at 30 mg/kg, po; type: ADME, organism-based; conditions: mouse, in vivo
4T1 = test: Antitumour activity against mouse 4T1 cells xenografted in female Balb/c mouse assessed as increase in animal survival at 40 mg/kg, po administered twice per day; type: functional, organism-based
LNCaP C4-2 = test: Antitumor activity against human C4-2 cells xenografted in male NcrNU mouse assessed as decrease in PSA mRNA levels in tumor at 40 mg/kg, po administered for 4 days; type: functional, organism-based
[7] = molecular target: T2, Myosin-IIIb (Homo sapiens) (UniProt Q8WXR4); test: Inhibition of human MYO3B at 2000 nM by KINOMEscan assay
T2 sequence (whole entry): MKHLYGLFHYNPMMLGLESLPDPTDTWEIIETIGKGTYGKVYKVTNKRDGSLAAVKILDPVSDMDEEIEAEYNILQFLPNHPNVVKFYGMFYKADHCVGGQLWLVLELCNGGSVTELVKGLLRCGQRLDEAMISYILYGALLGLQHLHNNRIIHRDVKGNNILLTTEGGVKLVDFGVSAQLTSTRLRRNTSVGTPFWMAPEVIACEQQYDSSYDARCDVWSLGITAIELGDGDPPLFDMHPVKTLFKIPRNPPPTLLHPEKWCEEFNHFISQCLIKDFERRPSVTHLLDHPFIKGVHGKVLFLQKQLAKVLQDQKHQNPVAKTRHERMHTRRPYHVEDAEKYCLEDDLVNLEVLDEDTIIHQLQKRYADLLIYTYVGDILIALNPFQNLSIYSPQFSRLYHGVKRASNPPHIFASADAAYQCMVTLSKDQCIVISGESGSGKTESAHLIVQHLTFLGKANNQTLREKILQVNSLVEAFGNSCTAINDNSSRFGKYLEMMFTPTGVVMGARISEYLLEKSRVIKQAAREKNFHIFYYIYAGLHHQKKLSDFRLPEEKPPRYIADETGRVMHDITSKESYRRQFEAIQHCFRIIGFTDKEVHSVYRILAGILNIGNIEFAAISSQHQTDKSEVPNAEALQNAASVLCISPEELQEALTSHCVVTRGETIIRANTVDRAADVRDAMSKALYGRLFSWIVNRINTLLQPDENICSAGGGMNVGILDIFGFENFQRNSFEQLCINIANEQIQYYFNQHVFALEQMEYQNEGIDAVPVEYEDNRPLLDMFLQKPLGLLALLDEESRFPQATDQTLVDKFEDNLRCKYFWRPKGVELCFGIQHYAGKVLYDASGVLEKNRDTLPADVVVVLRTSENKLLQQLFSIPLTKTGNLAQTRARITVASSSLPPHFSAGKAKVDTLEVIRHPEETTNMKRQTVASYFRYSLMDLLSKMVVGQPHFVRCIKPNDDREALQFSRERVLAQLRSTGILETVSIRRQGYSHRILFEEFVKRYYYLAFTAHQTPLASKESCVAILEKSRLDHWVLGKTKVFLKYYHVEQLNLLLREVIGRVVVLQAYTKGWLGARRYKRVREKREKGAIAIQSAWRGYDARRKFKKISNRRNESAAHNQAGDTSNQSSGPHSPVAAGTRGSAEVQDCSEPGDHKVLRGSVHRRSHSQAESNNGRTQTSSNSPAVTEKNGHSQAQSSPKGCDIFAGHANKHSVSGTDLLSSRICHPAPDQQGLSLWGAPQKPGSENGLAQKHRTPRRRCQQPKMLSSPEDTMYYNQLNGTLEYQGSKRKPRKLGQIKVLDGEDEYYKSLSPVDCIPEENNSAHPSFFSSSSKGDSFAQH

[8] = Ratio of tumor to blood biodistribution in male NcrNU mouse xenografted with 22Rv1 human xenografts at 20 mg/kg, ip; type: ADME, organism-based, Serum/Tumor
[9] = molecular target: T3, Mitogen-activated protein kinase kinase kinase kinase 2 (Homo sapiens) (UniProt Q12851); test: Inhibition of human MAP4K2 at 2000 nM by KINOMEscan assay
T3 sequence (whole entry): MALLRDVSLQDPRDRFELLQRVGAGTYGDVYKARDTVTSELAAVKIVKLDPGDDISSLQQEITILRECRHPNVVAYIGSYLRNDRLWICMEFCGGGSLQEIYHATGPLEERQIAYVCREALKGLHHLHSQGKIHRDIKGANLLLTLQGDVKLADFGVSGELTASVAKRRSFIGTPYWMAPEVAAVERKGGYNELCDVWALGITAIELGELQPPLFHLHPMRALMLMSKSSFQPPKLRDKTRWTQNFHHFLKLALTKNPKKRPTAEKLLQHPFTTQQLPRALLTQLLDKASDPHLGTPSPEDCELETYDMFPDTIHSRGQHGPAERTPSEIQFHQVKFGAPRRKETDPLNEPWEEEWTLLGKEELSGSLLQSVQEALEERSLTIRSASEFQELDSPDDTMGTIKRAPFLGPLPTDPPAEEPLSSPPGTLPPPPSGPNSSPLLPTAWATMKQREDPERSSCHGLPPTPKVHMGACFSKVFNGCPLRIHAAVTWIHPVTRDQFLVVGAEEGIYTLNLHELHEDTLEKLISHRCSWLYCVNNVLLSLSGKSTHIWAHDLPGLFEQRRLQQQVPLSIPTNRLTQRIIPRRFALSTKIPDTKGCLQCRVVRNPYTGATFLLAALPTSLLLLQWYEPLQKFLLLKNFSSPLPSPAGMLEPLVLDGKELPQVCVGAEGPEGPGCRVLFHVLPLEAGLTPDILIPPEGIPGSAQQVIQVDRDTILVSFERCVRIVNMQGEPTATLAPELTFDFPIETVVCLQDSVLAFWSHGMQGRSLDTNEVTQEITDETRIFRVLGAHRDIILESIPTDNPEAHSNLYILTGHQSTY

[10] = Drug uptake in tumor of male NcrNU mouse xenografted with human C4-2 cells at 40 mg/kg, po administered for 4 days; type: ADME, organism-based, Neoplasm, LNCaP C4-2; conditions: in vivo, 96 h
[11] = Elimination rate in female FVB mouse at 19 mg/kg, ip by LC/MS/MS analysis; type: ADME, organism-based; conditions: in vivo
[12] = molecular target: T4, Cyclin-dependent kinase 8/19 (Homo sapiens) (UniProt P49336+Q9BWU1); test: Inhibition of CDK8/CDK19 in HEK293 cells assessed as reduction in MYC expression at 1 uM incubated for 2 hrs and measured after 24 hrs of compound wash-off; type: cell-based
[13] = molecular target: Cyclin-dependent kinase 19 (Homo sapiens) (UniProt Q9BWU1); test: Inhibition of human CDK19 at 2000 nM by KINOMEscan assay
[14] = molecular target: T4, Cyclin-dependent kinase 8/19 (Homo sapiens); test: Inhibition of CDK8/CDK19 in HEK293 cells assessed as reduction in JUN expression at 1 uM incubated for 2 hrs and measured after 24 hrs of compound wash-off; type: cell-based
[15] = Half-life in female FVB mouse at 27 mg/kg, ip by LC/MS/MS analysis; type: ADME, organism-based; conditions: in vivo
[16] = molecular target: T2, Myosin-IIIb (Homo sapiens); test: Inhibition of human MYO3B by DiscoverX assay
[17] = AUC in female FVB mouse at 27 mg/kg, ip by LC/MS/MS analysis; type: ADME, organism-based; parameters: dose 27 mg/kg; conditions: in vivo
[18] = Elimination rate in female FVB mouse at 27 mg/kg, ip by LC/MS/MS analysis; type: ADME, organism-based; conditions: in vivo
[19] = molecular target: Cyclin-dependent kinase 8 (Homo sapiens) (UniProt P49336); test: Inhibition of CDK8 in TNF-alpha-induced HEK293 cells at 1 uM by NF-kappaB reporter assay relative to control; type: cell-based

Sequence of Cyclin-dependent kinase 8 (Homo sapiens) (P49336 whole entry): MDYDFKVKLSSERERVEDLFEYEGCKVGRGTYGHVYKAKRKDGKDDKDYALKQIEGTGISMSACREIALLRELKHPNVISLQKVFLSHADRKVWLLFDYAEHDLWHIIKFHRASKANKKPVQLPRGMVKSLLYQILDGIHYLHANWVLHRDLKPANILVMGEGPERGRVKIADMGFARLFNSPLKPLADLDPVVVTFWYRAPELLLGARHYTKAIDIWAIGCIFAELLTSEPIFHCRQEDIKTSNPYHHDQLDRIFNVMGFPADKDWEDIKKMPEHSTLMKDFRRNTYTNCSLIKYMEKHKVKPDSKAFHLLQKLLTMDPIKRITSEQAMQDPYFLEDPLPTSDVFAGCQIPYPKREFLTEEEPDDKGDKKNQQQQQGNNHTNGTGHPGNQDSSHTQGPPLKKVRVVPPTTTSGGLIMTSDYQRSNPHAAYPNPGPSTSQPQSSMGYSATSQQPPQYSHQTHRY
T4 sequence (P49336 whole entry, looked up): as the sequence (P49336 whole entry) above
T4 sequence (Q9BWU1 whole entry, looked up): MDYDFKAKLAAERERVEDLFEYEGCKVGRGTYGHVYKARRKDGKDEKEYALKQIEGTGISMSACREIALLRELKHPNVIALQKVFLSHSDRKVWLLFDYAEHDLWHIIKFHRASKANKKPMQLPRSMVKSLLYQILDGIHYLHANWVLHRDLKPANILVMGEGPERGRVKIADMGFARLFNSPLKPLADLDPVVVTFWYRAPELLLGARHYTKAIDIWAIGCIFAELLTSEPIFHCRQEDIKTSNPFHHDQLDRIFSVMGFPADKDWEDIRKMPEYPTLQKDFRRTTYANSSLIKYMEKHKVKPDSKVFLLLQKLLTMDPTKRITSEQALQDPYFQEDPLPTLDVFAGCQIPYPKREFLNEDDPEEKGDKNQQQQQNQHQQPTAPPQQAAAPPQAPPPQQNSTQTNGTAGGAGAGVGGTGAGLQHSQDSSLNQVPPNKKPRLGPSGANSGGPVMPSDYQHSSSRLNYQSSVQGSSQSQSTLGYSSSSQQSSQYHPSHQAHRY
Sequence of Cyclin-dependent kinase 19 (Homo sapiens) (Q9BWU1 whole entry): as the sequence (Q9BWU1 whole entry, looked up) above

- inhibition [1]: > 65%
- AUC(0-t) at 8 h [2]: 817 ng·h/mL
- Stabilty [3]: Stable
- IC50 [4]: 82 nM
- inhibition [5]: > 65%
- half-life [6]: 3.8 h
- inhibition [7]: > 65%
- Kp [8]: 5
- inhibition [9]: > 65%
- Drug uptake [10]: Active
- k el [11]: 0.000261 s⁻¹
- inhibition [12]: Active
- inhibition [13]: > 65%
- inhibition [14]: Active
Structure (SMILES): CN1CCN(C(=O)c2ccc3cc(CCNc4ccnc5ccc(C#N)cc45)ccc3c2)CC1
- Activity (4T1): Active
- Activity (LNCaP C4-2): Active

- Stabilty [3]: Unstable
- IC50 [4]: 222 nM
- half-life [15]: 0.17 h
- inhibition [16]: inactive
- AUC [17]: 1760 ng·h/mL
- k el [18]: 0.00111 s⁻¹
Structure (SMILES): CN1CCN(C(=O)c2ccc3cc(CCNc4ncnc5ccc(C#N)cc45)ccc3c2)CC1 [SENEXIN B]

- inhibition [19]: 8%
Structure (SMILES): Clc1ccc2nccc(NCCc3ccccc3)c2c1

- inhibition [19]: 10%
Structure (SMILES): Brc1ccc2nccc(NCCc3ccccc3)c2c1
